Series [1] can be described thus: Antibiotic iontophoresis in sheep tibia, antibiotic concentration in bone samples. Particulars: 1% solution, 100 volts. Here is the method:
Quantitative analysis was then carried out to test iontophoresis as a means of antibiotic delivery in allograft bone. Specimens of sheep tibia were prepared as described above. […] A potential difference of 100 volts was applied for 1 minute, 5 minutes or 10 minutes with controls being set up the same way for 10 minutes except no potential difference was applied. A recording of current passed for each specimen was made.
Each sample was then washed in water and dried. Samples from 10 the endosteal and periosteal surfaces were then taken by drilling the bone using a 3 mm low speed drill, in 10 positions on each surface, and crushed to a fine powder. To a known mass of each sample was added distilled water (2 ml) and the sample agitated using ultrasound. The sample was then centrifuged and the supernatant removed and the process repeated a further 2 times. The last wash was left to soak for 12 hours before centrifuging. […] The supernatant solutions were then analysed for antibiotic content; for gentamicin using Fluorescence Polarisation Immuno Assay (Abbot Axsym Analyser); and for flucloxacillin the assays were performed using High Performance Liquid Chromatography (HPLC) technique. From the levels in the supernatant solutions, the antibiotic concentrations in the bone samples were calculated. […]

The next series relates to Staphylococcus aureus. Particulars: varies with different phage types; cited from earlier work.

With gentamicin Sulphate, the “plateau level in endosteal and periosteal specimens” value in series [1] is recorded as “about 150 mg/Kg”. The minimum inhibitory concentration entry in the series on Staphylococcus aureus is listed as “approximately 0.25 mg/L”.

The values above are taken from US6602296B1, “Chemical supplementation of bone” (The University of Western Australia, priority 1997, dated 2003).
